From patent US8663914B2, “System and method for controlling bacterial cells with weak electric currents” (Syracuse University, priority 2009, dated 2014)
Values after ≈ are worked out from the molar mass of the structure shown. Where two headings read alike, the source gives them in different places.

Legend:
[1] = tested on: E. coli HM22 persister cells; assay: ROS accumulation (H2DCFDA fluorescence) and CFU count of E. coli HM22 persister cells treated with current and/or H2O2; type: cell-based
Protocol: Thus, the treatment could render the persister cells more susceptible to external ROS. To test this hypothesis, we treated E. coli HM22 persister cells with 100 μA for 20 min and followed by treatment with and without H2O2 (500 μM) for 1 h. These cells were then split into two parts: one for microscopic analysis and the other for CFU count. For microscopic study, cells were treated with 200 μM dichlorodihydrofluorescein diacetate (H2DCFDA, Sigma-Aldrich, St. Louis, Mo.) for 30 min in dark at room temperature. After incubation, cells were spin down and resuspended in PBS buffer for visualization using a fluorescence microscope (Axio Imager M1, ZEISS, Jena, Germany). The dye H2DCFDA can penetrate bacterial cells and get cleaved by cellular esterase to produce H2DCF. If there is any ROS present, this H2DCF will be converted to DCF and give fluorescence (Invitrogen, USA). […] For the CFU count, cells were plated on LB plates supplemented with DPA and incubated overnight at 37° C.

[2] = tested on: E. coli HM22 persister cells; type: cell-based; settings: 0.85% NaCl buffer
Protocol: To evaluate the effects of electric currents, the persister cells were first isolated as described previously. Briefly, the exponential culture of HM22 at optical density at 600 nm (OD600) of 0.3 in LB medium was treated with 100 μg/mL ampicillin for 3 h to kill and lyse the normal cells. The persister cells were then collected by centrifugation at 8000 rpm at 4° C. for 10 min and resuspended in 0.85% NaCl buffer. Electrodes with a dimension of 1 cm×5.6 cm were cut from a flat 304L stainless steel sheet (MSC; Melville, N.Y.) or graphite sheet (McMaster-CARR, Santa Fe Springs, Calif.). The same material was used for both the counter electrode and working electrode, which were placed into a 4.5 mL standard-style polystyrene cuvette (Fisher Scientific; Hampton, N.H.). A 0.48 mm diameter silver wire (A-M Systems; Sequim, Wash.) was placed in bleach for 30 min to produce an Ag/AgCl reference electrode. The bottom 1″ of a borosilicate glass Pasteur pipette (Fisher) was cut and the reference wire was placed inside to prevent contact with the working or counter electrode. An AFCBP1 potentiostat/galvanostat (Pine Instrument Company, Grove City, Pa.) was connected via alligator clamps to the electrodes and used to control the current. The volume of medium in the fully-constructed electrochemical cell was 3 mL (see FIG. 2).

P. aeruginosa PAO1 = settings: ciprofloxacin up to 200 μg/mL, 3.5 h, overnight culture
[3] = tested on: planktonic B. subtilis BE1500; assay: Minimum inhibitory concentration of ampicillin on planktonic cells (OD600, 96-well plate); type: cell-based; settings: Bacillus subtilis; LB medium, 24 hours, 37° C.
Protocol: Determination of Minimum Inhibitory Concentration and Minimum Bactericidal Concentrations. To determine the minimum inhibitory concentrations (MICs) of ampicillin on planktonic cells, B. subtilis 168 and B. subtilis BE1500 were cultured in LB medium overnight as described above. The overnight cultures were subcultured by a 1:1000 dilution in LB medium containing various concentrations of ampicillin with seven replicates in a 96-well plate and allowed to grow at 37° C. with shaking at 200 rpm for 24 hours. The OD600 was measured immediately after inoculations and at 24 hours after inoculation with a microplate reader (Model EL808, BioTek Instruments, Winooski, Vt.).

[4] = tested on: B. subtilis BE1500 biofilms; assay: Treatment of B. subtilis BE1500 biofilms with ampicillin and/or DC (CFU count); type: cell-based
Protocol: MIC is not a useful measurement of the response of biofilms to antibiotics because antibiotics added in the growth medium before inoculation could kill planktonic cells before they can form a biofilm. Therefore it is important to characterize the minimum bactericidal concentration (MBC) of ampicillin on established biofilms. B. subtilis BE1500 was cultured overnight as described above. Flat stainless steel electrodes were placed in a 100 mm petri dish with 20 mL LB medium, which was inoculated with 20 μL of an overnight culture. Biofilms were allowed to develop for 48 hours at 37° C. without shaking. The electrodes with biofilms were gently washed three times in 0.85% NaCl buffer and immersed in LB medium containing various concentrations of ampicillin for 15 min. Immediately after treatment, the electrodes with biofilms were placed in a 15 mL polystyrene test tube (Fisher Scientific) containing 4 mL 0.85% NaCl buffer and sonicated for 2 min to remove the biofilm cells from the surface. The stainless steel electrode was then removed and the tube was vortexed for 30 s to break up any remaining cell clusters. CFUs were counted after spreading the buffer with cells on LB agar plates and incubated overnight at 37° C.
Treatment of Biofilm Cultures with Ampicillin and DC. B. subtilis BE1500 biofilms were prepared as described for MBC experiments. Prior to treatment, biofilms were gently washed three times with 0.85% NaCl buffer. Each stainless steel coupon with biofilm was placed as the working electrode in the electrochemical cell cuvette shown in FIG. 16. Prior to placing the electrode with biofilm in the cuvette, 3 mL LB medium was added to the cuvette to prevent the biofilm from drying out. Samples were treated for 15 min with 0, 25, 83 and 250 μA/cm^2. Immediately after treatment, the biofilms were placed in a 15 mL polystyrene test tube containing 4 mL 0.85% NaCl buffer and sonicated for 2 min to remove the biofilm from electrode. The stainless steel electrode was then removed and the tube containing the cells and buffer was vortexed for 30 s to break up any remaining cell clusters. Cell densities were determined by plating the cultures on LB/agar plates and counting CFUs. The effect of current-generated ions was tested in the same way except that the cells were incubated in pre-treated LB in the absence of a current.

B. subtilis 168 = settings: reported in the literature; cited from earlier work
P. aeruginosa PAO1 cells = assay: Killing of P. aeruginosa PAO1 cells at exponential phase by tobramycin and/or electric current (CFU count); type: cell-based
Protocol: Continued experiments, for example, have already shown that the effects of electric current and synergy with antibiotics is not species specific, as similar results were shown using P. aeruginosa. The experiments were conducted in the same way as described for E. coli HM22. Briefly, an overnight culture of P. aeruginosa PAO1 was used to inoculate LB medium to an OD600 of ˜0.005 (1:1000 dilution of an overnight culture with LB) and incubated till OD600 reached ˜0.7. Then the cells were washed twice with 0.85% NaCl buffer and treated in the same way as described for planktonic E. coli cells. […] Treatment with 75 μA/cm^2 for 60 min reduced the number of viable P. aeruginosa PAO1 cells by 3 logs.

E. coli HM22 biofilms = assay: Killing of E. coli HM22 biofilm cells on 304L stainless steel coupons by tobramycin and/or direct current (CFU count); type: cell-based
Protocol: To determine if electric currents are also effective in killing persister cells in biofilms, E. coli HM22 biofilms were cultured on 304L stainless steel coupons. The biofilm-coated coupons were then used as anodic or cathodic electrode, and treated with direct current alone or with tobramycin together. Immediately after treatment, the cells were removed from the biofilm-coated coupons by sonication and vertexing. A portion of the cells was directly plated on LB+DPA plates to quantify the total number of viable cells by counting CFU, the other part of the sample was treated with 100 μg/mL ampicillin for another 3 h and plated on LB+DPA plates to quantify the number of the viable persister cells. This approach allowed us to study the killing effects on normal and persister cells separately.
However, treatments with 75 μA/cm^2 alone for 60 min reduced the number of viable persister cells by 3.5 logs. After treating biofilms with currents and tobramycin together for 60 min, the number of viable persister cells was reduced by 5.4 log (nearly complete killing, FIG. 4). Thus, synergy between electric currents and antibiotics also exist for killing persister cells in biofilms.

[5] = tested on: P. aeruginosa PAO1 persister cells; assay: Killing of P. aeruginosa PAO1 persister cells by tobramycin with electric current or pretreated buffer (CFU count); type: cell-based
Protocol: Thus, the 1% cells that survived the treatment were persister cells and treatment with 200 μg/mL Cip was used in the following experiments to harvest persister cells and ensure the complete killing of normal cells.
However, treatment with 75 μA/cm^2 (500 μA total) current reduced the number of viable persisters by ˜2.5 logs and another 2 logs of killing was obtained when treating with Tob together, as shown in FIG. 12. […] This is a significant advantage compared to traditional antibiotics, which commonly fail to kill bacterial cells that are in stationary phase or are persisters.
To understand if the killing by electric currents was due to the ions generated by electrochemical reactions, P. aeruginosa PAO1 persister cells were also treated with pretreated buffer, which was prepared by treating 0.85% NaCl buffer with SS304 stainless steel electrodes for the same current level and duration as used for the above experiments. The pretreated buffers were collected after 20, 40 or 60 min of treatment. P. aeruginosa PAO1 persister cells were collected as described above and resuspended in the pretreated buffers in the presence and absence of Tob. The cells were then incubated at room temperature without shaking for up to 1 h and samples were collected every 20 min to count CFU. […] The generation of ROS as described in E. coli HM22 data could be partially responsible for the killing. In addition, no synergy was observed between pretreated buffer and 1.5 μg/mL Tob.

[6] = tobramycin alone, 20 μg/mL or 150 μg/mL, compared to untreated control

OO [H2O2]
accumulation of ROS in persister cells ([1]; H2O2 500 μM, 1 h, H2DCFDA fluorescence): caused accumulation of ROS | killing of persister cells (CFU) ([1]; electric current (100 μA, 20 min) followed by H2O2 500 μM for 1 h, versus either alone): killed more persister cells than either the EC or H2O2 alone

CCn1nc(C(=O)O)c(=O)c2cc3c(cc21)OCO3 [cinoxacin]
reduction in the number of viable persister cells ([2]; 20 μg/mL cinoxacin alone, graphite electrodes cell, 60 min): no apparent reduction | reduction in the number of viable persister cells ([2]; 20 μg/mL cinoxacin together with 75 μA/cm^2 current, graphite electrodes): more than 5 log

O=C(O)c1cn(C2CC2)c2cc(N3CCNCC3)c(F)cc2c1=O [ciprofloxacin]
cells that survived the treatment (P. aeruginosa PAO1): 1%

CC1(C)S[C@@H]2[C@H](NC(=O)[C@H](N)c3ccccc3)C(=O)N2[C@H]1C(=O)O [ampicillin]
MIC [3]: ≤ 2 µg/mL | change in killing on adding ampicillin to current ([4]; 50 μg/mL ampicillin and 500 μA current, graphite electrodes, chlorine-free M56 buffer, versus current alone): slight decrease in killing | biofilm cells killed ([4]; 1000 μg/mL ampicillin alone for 15 min): 59% | synergy of DC and ampicillin on biofilms ([4]; 83 μA/cm^2 DC and ampicillin together, stainless steel electrodes): no apparent synergy | inhibition at 50 µg/mL ([4]; Bacillus subtilis, BE1500BIOFILMS, 0.25 h, 50 μg/mL ampicillin with 500 μA DC current, 15 min, graphite electrodes, read-out: decrease in cell viability): 44% | inhibition at 100 µg/mL ([4]; Bacillus subtilis, BE1500BIOFILMS, 0.25 h, 100 μg/mL ampicillin with 83 μA/cm^2 DC, 15 min, 37° C., stainless steel electrodes, versus antibiotic alone, read-out: decrease in cell viability): 79% | inhibition at 1000 µg/mL ([4]; Bacillus subtilis, BE1500BIOFILMS, 0.25 h, 1000 μg/mL ampicillin with 83 μA/cm^2 DC, 15 min, 37° C., stainless steel electrodes, versus antibiotic alone, read-out: decrease in cell viability): 86% | inhibition at 50 µg/mL ([4]; Bacillus subtilis, BE1500BIOFILMS, 0.25 h, read-out: decrease in cell viability, 50 μg/mL ampicillin with 83 μA/cm^2 (500 μA) DC, 15 min, 37° C., stainless steel electrodes, LB, versus antibiotic alone): 93% | viability at 50 µg/mL ([4]; Bacillus subtilis, BE1500BIOFILMS, 50 μg/mL ampicillin with 500 μA DC current, graphite electrodes, chlorine-free M56 buffer, read-out: viability of biofilm cells (untreated control normalized as 100%)): 74% | MIC (B. subtilis 168): 0.2 µg/mL (≈ 0.572 µM)

NC[C@H]1O[C@H](O[C@H]2[C@H](O)[C@@H](O[C@H]3O[C@H](CO)[C@@H](O)[C@H](N)[C@H]3O)[C@H](N)C[C@@H]2N)[C@H](N)C[C@@H]1O [tobramycin]
killing of viable cells (P. aeruginosa PAO1 cells; 1.5 μg/mL Tob alone, 0.85% NaCl buffer): did not cause any significant killing | killing of viable cells (P. aeruginosa PAO1 cells; 1.5 μg/mL Tob combined with 75 μA/cm^2 for 60 min): up to 5 logs | synergy with electric current in killing persister cells ([2]; tobramycin with 75 μA/cm^2 DC, graphite electrodes): synergistic effect | reduction of number of viable persister cells in biofilm (E. coli HM22 biofilms; currents (75 μA/cm^2 DC) and tobramycin (20 μg/mL) together for 60 min): 5.4 log | reduction in number of viable persister cells in biofilm (E. coli HM22 biofilms; [6]): no significant reduction | reduction in total number of viable cells in biofilm (E. coli HM22 biofilms; [6]): no significant reduction | killing of persister cells ([5]; 1.5 μg/mL Tob alone): not able to kill | synergy between pretreated buffer and Tob ([5]; 1.5 μg/mL Tob in 0.85% NaCl buffer pretreated with SS304 electrodes, no current, up to 1 h): no synergy | additional killing of persister cells beyond current alone ([5]; 1.5 μg/mL Tob together with 75 μA/cm^2 (500 μA total) current): 2 logs
